Results taken from ChEMBL document CHEMBL3046307, “Synthesis and evaluation of 1-benzhydryl-sulfonyl-piperazine derivatives as inhibitors of MDA-MB-231 human breast cancer cell proliferation” (2007).

These compounds were tested on MDA-MB-231 (assay: Cytotoxicity against Homo sapiens (human) MDA-MB-231 cells assessed as inhibition of cell proliferation at 2 mM after 72 hr by MTS assay relative to control). Settings: MDA-MB-231, 72 h.
Format: functional

First: Cc1ccc(S(=O)(=O)N2CCN(C(c3ccccc3)c3ccccc3)CC2)cc1
Second: O=S(=O)(c1ccc(Cl)cc1)N1CCN(C(c2ccccc2)c2ccccc2)CC1
The inhibition at 2000 µM of the first is higher: 10% for the first, 1% for the second.

First: Cc1noc(C)c1S(=O)(=O)N1CCN(C(c2ccccc2)c2ccccc2)CC1
Second: CS(=O)(=O)N1CCN(C(c2ccccc2)c2ccccc2)CC1
The inhibition at 2000 µM of the first is higher: 20.6% for the first, 3.79% for the second.

Compound `CC(C)(C)c1ccc(S(=O)(=O)N2CCN(C(c3ccccc3)c3ccccc3)CC2)cc1` has an inhibition at 2000 µM of 28.6%.
